{"source": "paper PMC10961359", "about": "“Targeting hexokinase 2 for oral cancer therapy: structure-based design and validation of lead compounds” (Frontiers in Pharmacology, 2024)", "assay_type_in_all_cases": "cell-based", "key": {"Cal27 cells [1]": {"system": "Cal27 cells", "assay": "Mitochondria membrane potential by TMRE uptake, Cal27", "conditions": "Cal27, 30 μM, 4 h", "description": "FaDu and Cal27 cells were treated with test compounds (0.2 million cells per treatment) and were incubated for 1 h with 100 μM of 2-NBDG (Invitrogen, N13195), in glucose free medium, washed with ice-cold PBS, and re-suspended in 500 μL of PBS and maintained on ice to perform flow cytometric analyses within 30 min. The mean fluorescent intensity (MFI) readout reflects the amount of fluorescent glucose analog taken up by the cells, providing insight into their glucose uptake capacity. The percent (%) cell population positive for glucose uptake (shown with a right shift of the histogram peaks) were also plotted for both the cell lines. For MMP analysis, cells were incubated with 200 nM of TMRE (Invitrogen, T669) for 30 min. For each measurement, data was collected for 10,000 events using a BD FACS Aria III (Becton Dickinson, San Jose, CA) instrument.\nMitochondria utilize the oxidizable substrates to produce a membrane potential as the proton gradient ([Sivandzade et al., 2019]). […] To determine the change in MMP post-treatment with HK2 inhibitors, the cells were treated with 200 nM of TMRE (tetramethyl rhodamine ethyl ester, a cell-permeant cationic dye readily sequestered by active mitochondria) and flow cytometric analyses of TMRE uptake was carried out. […]"}, "Cal27 cells [2]": {"system": "Cal27 cells", "assay": "Cell cycle analysis (propidium iodide, flow cytometry), Cal27", "conditions": "Cal27, 10 and 30 μM, 72 h", "description": "(§1) FaDu and Cal27 cells were treated with the test compounds (0.5 million cells per treatment) for 72 h, and harvested for cell cycle analysis (Cat# BD340242) and apoptosis analysis (Cat# BD556547) by flow cytometry according to manufacturer’s instructions.\n(§2) To determine the effect of HK2 inhibition in the progression of the cell cycle, flow cytometric analysis of compound-treated FaDu and Cal27 cells was carried out 72 h post-treatment. Cell cycle analysis is carried out to quantify the DNA content and estimate the percentages of the cell population in different cell cycle phases via propidium iodide staining. […] To determine the apoptosis-inducing activity of HK2 inhibitors, 10 and 30 μM of compounds H2 and H10 treated FaDu and Cal27 cells were stained with annexin V conjugated with FITC, followed by propidium iodide staining."}, "Cal27 spheroids": {"system": "Cal27 spheroids", "assay": "3D spheroid culture of Cal27 cells", "description": "Cal27 cells were seeded at a density of 10,000 cells per well in a 96-well plate coated with 1.5% agarose in incomplete medium. For the prophylactic treatment, medium containing the compounds was added to each well after 6 h of seeding. For treatment, compounds were added after 48 h of seeding. After incubation with the compounds, spheroids were imaged using phase-contrast microscopy to assess the morphology and size. Subsequently, the spheroids were pooled and dissociated into single cell suspension with trypsin for 10 min, washed with PBS and stained with propidium iodide (Cat# BD556547) to analyze the number of apoptotic cells using flow cytometry. For the analysis of spheroid images, each image was processed using ImageJ software where the threshold of each 8-bit image was adjusted to differentiate the darker spheroid area (the inner core) from the lighter spheroid area (the peripheral layers). Subsequently, the darker and lighter areas were measured in pixel square units using the ‘analyze particles’ option in ImageJ.\nCells plated in monolayer cultures might behave differently as compared to 3D cultures. The 3D cultures can better mimic the tumor development and serve as a better tool for drug screening ([Zanoni et al., 2016]). Therefore, spheroid cultures of Cal27 cells were prepared and treated with lead H2. […]"}, "FaDu cells": {"system": "FaDu cells", "assay": "Annexin V FITC / propidium iodide apoptosis assay, FaDu", "conditions": "10 and 30 μM, 72 h", "description": "as §1, §2"}, "Cal27 oral cancer cells": {"system": "Cal27 oral cancer cells", "assay": "MTT antiproliferative assay, Cal27", "conditions": "Homo sapiens, CAL-27; MTT, 72 h treatment; mean ± SEM; read-out: GI50 for Cal27", "description": "FaDu cell line was cultured in RPMI-1640 medium containing L-glutamine (300 mg/L) and sodium bicarbonate (2 g/L), while Cal27, HEK293 and HFF-1 cell lines were cultured in DMEM medium containing glucose (4.5 g/L), L-glutamine (584 mg/L) and sodium bicarbonate (3.7 g/L). For gene expression and qPCR studies, RNA isolation was performed using Trizol (Thermo). The reagents and the primer sequences employed for the qPCR assays have been described previously ([Chakraborty et al., 2022]).\nThe hits derived from the docking study were sourced from either commercial suppliers or pre-existing compounds within our laboratory or were synthesized anew. The FaDu and Cal27 oral cancer cells were treated with the compounds for 72 h at concentrations of 3, 10, 30, and 100 μM. A post-treatment MTT assay was done to evaluate their antiproliferative activity. Table S2 represents the anti-proliferative and enzyme inhibitory activity of the compounds obtained as hits from the structure-based drug design strategy. […] Consequently, 50 μM of all the hit compounds were evaluated for their HK2 enzyme inhibitory activity. 50 μM of compounds were incubated with HK2 protein and the rate of reaction was assessed in kinetic mode (rate of conversion of NAD to NADH). The choice of 50 μM concentration was based primarily on MTT assays and GI50 calculation. The average GI50 values of the hit compounds against less sensitive FaDu cell line was approximately 50 μM. Considering this information, we reasoned that utilizing a concentration equivalent to the average GI50 would allow us to assess the maximum inhibitory effect of the compounds on HK2 enzyme activity. […] The same compounds have been previously reported by our team to have EGFR phosphorylation inhibitory potential and were coded as H2 (compound 14) and H10 (compound 11) ([Chakraborty et al., 2022]). […] Figures 1C,D show the lead compounds H2 and H10 at the active site of HK2 enzyme interacting via H-bonds with the amino acid residues."}}}
{"smiles": "COc1ccc(CNC(=O)c2nc3ccccc3s2)cc1O", "note": "[Compound 14, N-(3-hydroxy-4methoxybenzyl)benzo[d]thiazole-2-carboxamide]", "values": [{"measurement": "MMP reduction compared to H10 and CCCP", "setting": "Cal27 cells [1]", "value": "more effective in reducing the MMP"}, {"measurement": "effect on cell cycle progression", "setting": "Cal27 cells [2]", "value": "G0/G1 phase arrest"}, {"measurement": "spheroid growth", "setting": "Cal27 spheroids; prophylactic and therapeutic treatment", "value": "reduction of spheroid growth"}, {"measurement": "population of dead cells in spheroids", "setting": "Cal27 spheroids; propidium iodide staining at the end of the study", "value": "increase in the population of dead cells"}, {"measurement": "apoptosis-inducing activity", "setting": "FaDu cells", "value": "late apoptotic and necrotic effects"}, {"measurement": "GI50", "setting": "Cal27 oral cancer cells", "value": 21.7, "unit": "µM"}]}
